What was measured:
Test in all cases: relative viability (nuclei count vs DMSO), 5 days (fraction); higher = more cells survive
NCI-H460 = system: NCI-H460
In short: (§1)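 Nuclei were stained with Hoechst during a one-step fixation (final 0.05% Triton X-100, 1% formaldehyde, 1 ug/ml Hoechst) carried out 5 days after dosing, then counted on 4× images. The cells, lung cancer lines in 1536-well plates, had been dosed by pin tool the day after seeding with one drug alone or a fixed anchor-drug dose plus five library-drug doses (not always all listed) in √10 steps. Relative viability is the nuclei count in treated wells divided by that in vehicle wells, and each value is the median of duplicate plates.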

NCI-H2009 = system: NCI-H2009
In short: as §1

NCI-H727 = system: NCI-H727
In short: as §1

NCI-H1437 = system: NCI-H1437
In short: as §1

PC-14 = system: PC-14
In short: as §1

NCI-H3122 = system: NCI-H3122
In short: as §1

NCI-H1650 = system: NCI-H1650
In short: as §1

LK-2 = system: LK-2
In short: as §1

COR-L 105 = system: COR-L 105
In short: as §1

NCI-H441 = system: NCI-H441
In short: as §1

ABC-1 = system: ABC-1
In short: as §1

CC(=O)O[C@@]12CO[C@@H]1C[C@H](O)[C@@]1(C)C(=O)[C@H](O)C3=C(C)[C@@H](OC(=O)[C@H](O)[C@@H](NC(=O)OC(C)(C)C)c4ccccc4)C[C@@](O)([C@@H](OC(=O)c4ccccc4)[C@H]21)C3(C)C [Docetaxel] + CCNC(=O)c1noc(-c2cc(C(C)C)c(O)cc2O)c1-c1ccc(CN2CCOCC2)cc1 [Luminespib] (partner 0.01 µM)
relative viability (NCI-H460; first compound 0.002 µM): 0.0279 | relative viability (NCI-H460; first compound 0.006325 µM): 0.025 | relative viability (NCI-H460; first compound 0.02 µM): 0.0187 | relative viability (NCI-H2009; first compound 0.0002 µM): 0.979 | relative viability (NCI-H2009; first compound 0.000632 µM): 1.09 | relative viability (NCI-H2009; first compound 0.002 µM): 0.956 | relative viability (NCI-H2009; first compound 0.006325 µM): 0.78 | relative viability (NCI-H2009; first compound 0.02 µM): 0.261 | relative viability (NCI-H727; first compound 0.0002 µM): 0.753 | relative viability (NCI-H727; first compound 0.000632 µM): 0.419 | relative viability (NCI-H727; first compound 0.002 µM): 0.351 | relative viability (NCI-H727; first compound 0.006325 µM): 0.353 | relative viability (NCI-H727; first compound 0.02 µM): 0.308 | relative viability (NCI-H1437; first compound 0.0002 µM): 1.07 | relative viability (NCI-H1437; first compound 0.000632 µM): 1.09 | relative viability (NCI-H1437; first compound 0.002 µM): 0.277 | relative viability (NCI-H1437; first compound 0.006325 µM): 0.234 | relative viability (NCI-H1437; first compound 0.02 µM): 0.167 | relative viability (PC-14; first compound 0.0002 µM): 0.199 | relative viability (PC-14; first compound 0.000632 µM): 0.162 | relative viability (PC-14; first compound 0.002 µM): 0.116 | relative viability (PC-14; first compound 0.02 µM): 0.127 | relative viability (NCI-H3122; first compound 0.0002 µM): 0.088 | relative viability (NCI-H3122; first compound 0.000632 µM): 0.101 | relative viability (NCI-H3122; first compound 0.002 µM): 0.104 | relative viability (NCI-H3122; first compound 0.006325 µM): 0.0883 | relative viability (NCI-H3122; first compound 0.02 µM): 0.115 | relative viability (NCI-H1650; first compound 0.0002 µM): 0.22 | relative viability (NCI-H1650; first compound 0.000632 µM): 0.212 | relative viability (NCI-H1650; first compound 0.006325 µM): 0.199 | relative viability (NCI-H1650; first compound 0.02 µM): 0.193 | relative viability (LK-2; first compound 0.0002 µM): 0.193 | relative viability (LK-2; first compound 0.000632 µM): 0.177 | relative viability (LK-2; first compound 0.002 µM): 0.157 | relative viability (LK-2; first compound 0.006325 µM): 0.164 | relative viability (LK-2; first compound 0.02 µM): 0.168 | relative viability (COR-L 105; first compound 0.0002 µM): 0.99 | relative viability (COR-L 105; first compound 0.000632 µM): 0.713 | relative viability (COR-L 105; first compound 0.002 µM): 0.531 | relative viability (COR-L 105; first compound 0.006325 µM): 0.595 | relative viability (COR-L 105; first compound 0.02 µM): 0.305 | relative viability (NCI-H441; first compound 0.0002 µM): 0.294 | relative viability (NCI-H441; first compound 0.000632 µM): 0.288 | relative viability (NCI-H441; first compound 0.002 µM): 0.3 | relative viability (NCI-H441; first compound 0.006325 µM): 0.257 | relative viability (NCI-H441; first compound 0.02 µM): 0.253 | relative viability (ABC-1; first compound 0.0002 µM): 0.619 | relative viability (ABC-1; first compound 0.000632 µM): 0.704 | relative viability (ABC-1; first compound 0.002 µM): 0.231 | relative viability (ABC-1; first compound 0.006325 µM): 0.352 | relative viability (ABC-1; first compound 0.02 µM): 0.338

Reference: the supplement of paper PMC10307832
